Source: patent US3968129A, “Azidophenol amine compounds and therapeutic compositions” (Boehringer Mannheim G.m.b.H., priority 1974, dated 1976)

Legend:
[1] = tested on: cardiac β-receptor; assay: Cardiac β-receptor blocking activity: inhibition of isoprenalin-induced heart frequency increase (tachycardia) in wake rabbits; assay type: in vivo; conditions: wake rabbit; for Blocking of Isoprenalin Tachycardia in wake rabbits: Heartbeat Frequency x±sx: isoprenalin 1 μg/kg i.v. 30 min after infusion; for DE250: interpolated dosage which limits the frequency increase to 250 beats/min
Procedure: (§1) The following tests were carried out to determine the cardiac β-receptor blocking activity and the acute toxicity of certain compounds representative of the invention, as well as of a conventional comparison compound.
The cardiac β-receptor blocking activity of the test compounds was evaluated by determination of the inhibition of isoprenalin-induced heart frequency increase in wake rabbits. This type of inhibition is a typical property of β-receptor blocking bio catalysts.
The tests were carried out on rabbits weighing between 2 to 3.5 kg settled in wooden cages with EKG-electrodes inserted into the hind-quarters s.c. The heart frequency was read via an integrator (15 seconds) as a digital value. The substances to be tested were infused through a small tube to the ear vein of the rabbits over a period of 15 minutes 30 minutes after completion of the infusion, isoprenalin (1 μg/kg) was intravenously injected. The results were set forth in terms of the reduction of the heartbeat increase induced by isoprenalin and a value (DE250) calculated as the dosage required to limit such increase to 250 heart beats/min.

[2] = in vivo; conditions: iv; for LD50: mouse, i.v. into tail vein within 5 seconds, dosage at which 50% of the mice die, read-out: Acute Toxicity LD50 Mouse; for therapeutic index (LD50/DE250): ratio of LD50 (mouse i.v.) to DE250 (wake rabbit i.v.)
Procedure: as §1
In another series of tests, the acute toxicity in mice of the test compounds by intravenous administration was determined as a measure of the tolerance (calculated as LD50 = dosage at which 50% of the mice die). The substances were injected, within a time period of 5 seconds, in dissolved form into the tail vein of 5 male and 5 female mice each, in increasing dosages. From the results (percentage of dead animals) at the various dosages, the mean lethal dosage was ascertained graphically or by way of programmed test analysis.
The results of both series of tests are set forth in the table below which contains, in addition, a calculated value expressing the ratio of LD50 : DE250 for each test compound.

SMILES	Blocking of Isoprenalin Tachycardia in wake rabbits: Heartbeat Frequency x±sx ([1]; dosage 0.5 mg/kg i.v.)	Blocking of Isoprenalin Tachycardia in wake rabbits: Heartbeat Frequency x±sx ([1]; dosage 1.0 mg/kg i.v.)	Blocking of Isoprenalin Tachycardia in wake rabbits: Heartbeat Frequency x±sx ([1]; dosage 2.0 mg/kg i.v.)	Blocking of Isoprenalin Tachycardia in wake rabbits: Heartbeat Frequency x±sx ([1]; dosage 5.0 mg/kg i.v.)	Blocking of Isoprenalin Tachycardia in wake rabbits: Heartbeat Frequency x±sx ([1]; dosage 10.0 mg/kg i.v.)	Blocking of Isoprenalin Tachycardia in wake rabbits: Heartbeat Frequency x±sx ([1]; dosage 20.0 mg/kg i.v.)	DE250 [1]	LD50 [2]	Blocking of Isoprenalin Tachycardia in wake rabbits: Heartbeat Frequency x±sx ([1]; dosage 0.1 mg/kg i.v.)	therapeutic index (LD50/DE250) [2]	Blocking of Isoprenalin Tachycardia in wake rabbits: Heartbeat Frequency x±sx ([1]; dosage printed "10" mg/kg i.v. (Compound 3 line))	Blocking of Isoprenalin Tachycardia in wake rabbits: Heartbeat Frequency x±sx ([1]; dosage 0.01 mg/kg i.v.)
CC(=O)Nc1ccc(OCC(O)CNC(C)C)cc1 (stereo not shown) [Comparison Compound A, 4-[2-hydroxy-3-isopropylaminopropoxy]acetanilide, reference compound]	307± 7 Beats/minute	264± 9 Beats/minute	250± 4 Beats/minute	246± 7 Beats/minute	217± 4 Beats/minute	225± 6 Beats/minute	2.5 mg/kg i.v.	69 mg/kg	–	–	–	–
CC(C)(C)NCC(O)COc1ccccc1N=[N+]=[N-] (stereo not shown) [Compound 4, 2-(2-Hydroxy-3-tert.-butylaminopropoxy)-azidobenzene]	237± 7 Beats/minute	246± 6 Beats/minute	–	245±14 Beats/minute	–	–	0.5 mg/kg i.v.	29 mg/kg	282± 5 Beats/minute	58	–	–
CC(C)(C)NCC(O)COc1cccc(N=[N+]=[N-])c1 (stereo not shown) [Compound 3, 3-(2-Hydroxy-3-tert.-butylaminopropoxy)-azidobenzene]	256±10 Beats/minute	–	222± 6 Beats/minute	235±10 Beats/minute	–	–	0.8 mg/kg i.v.	50 mg/kg	317±10 Beats/minute	60	244± 8 Beats/minute	–
CC(C)NCC(O)COc1ccccc1N=[N+]=[N-] (stereo not shown) [Compound 1, 2-(2-Hydroxy-3-isopropylaminopropoxy)-azidobenzene]	250± 5 Beats/minute	236±11 Beats/minute	–	223± 6 Beats/minute	–	–	0.3 mg/kg i.v.	25 mg/kg	252±10 Beats/minute	80	–	288± 8 Beats/minute
CC(C)NCC(O)COc1cccc(N=[N+]=[N-])c1 (stereo not shown) [Compound 2, 3-(2-Hydroxy-3-isopropylaminopropoxy)-azidobenzene]	282± 9 Beats/minute	258±10 Beats/minute	–	205± 9 Beats/minute	–	–	1.3 mg/kg i.v.	50 mg/kg	–	40	–	–
